{"source": "PubChem BioAssay AID1259407", "about": "(Chemical Carcinogenesis Research Information System (CCRIS), 2018)", "tested_on": "CCRIS mutagenicity, Ames/micronucleus/aberration tests", "assay": "CCRIS mutagenicity studies", "note": "Calls of active or inactive are those of the source. The rule behind the calls is not given here.", "data": [{"smiles": "Nc1ccc2c(c1)C(=O)c1ccccc1C2=O", "values": [{"measurement": "mutagenic call", "setting": "End Point: IN VITRO CHROMOSOMAL ABERRATIONS, Test System: CHL CELLS, Metabolic Activation: RAT, LIVER, S-9, SODIUM PHENOBARBITAL AND 5,6-BENZOFLAVONE", "result": "inactive; negative"}, {"measurement": "mutagenic call", "setting": "Test System: AMES SALMONELLA TYPHIMURIUM, Strain/Indicator: TA98, Metabolic Activation: HAMSTER, LIVER, S-9, AROCLOR 1254, Method: STANDARD PLATE", "result": "active; positive"}, {"measurement": "mutagenic call", "setting": "Test System: AMES SALMONELLA TYPHIMURIUM, Strain/Indicator: TA98, Metabolic Activation: HAMSTER, LIVER, S-9, Method: STANDARD PLATE", "result": "active; positive"}, {"measurement": "mutagenic call", "setting": "Test System: AMES SALMONELLA TYPHIMURIUM, Strain/Indicator: TA98, Metabolic Activation: MOUSE, LIVER, S-9, AROCLOR 1254, Method: STANDARD PLATE", "result": "active; positive"}, {"measurement": "mutagenic call", "setting": "Test System: AMES SALMONELLA TYPHIMURIUM, Strain/Indicator: TA98, Metabolic Activation: MOUSE, LIVER, S-9, Method: STANDARD PLATE", "result": "active; positive"}, {"measurement": "mutagenic call", "setting": "Test System: AMES SALMONELLA TYPHIMURIUM, Strain/Indicator: TA98, Metabolic Activation: NONE, Method: STANDARD PLATE", "result": "inactive; negative"}, {"measurement": "mutagenic call", "setting": "Test System: AMES SALMONELLA TYPHIMURIUM, Strain/Indicator: TA98, Metabolic Activation: RAT, LIVER, S-9, AROCLOR 1254, Method: STANDARD PLATE", "result": "active; positive"}, {"measurement": "mutagenic call", "setting": "Test System: AMES SALMONELLA TYPHIMURIUM, Strain/Indicator: TA98, Metabolic Activation: RAT, LIVER, S-9, Method: STANDARD PLATE", "result": "active; positive"}, {"measurement": "mutagenic call", "setting": "Test System: AMES SALMONELLA TYPHIMURIUM, Strain/Indicator: TA100, Metabolic Activation: HAMSTER, LIVER, S-9, AROCLOR 1254, Method: STANDARD PLATE", "result": "active; positive"}, {"measurement": "mutagenic call", "setting": "Test System: AMES SALMONELLA TYPHIMURIUM, Strain/Indicator: TA100, Metabolic Activation: HAMSTER, LIVER, S-9, Method: STANDARD PLATE", "result": "active; positive"}, {"measurement": "mutagenic call", "setting": "Test System: AMES SALMONELLA TYPHIMURIUM, Strain/Indicator: TA100, Metabolic Activation: MOUSE, LIVER, S-9, AROCLOR 1254, Method: STANDARD PLATE", "result": "active; positive"}, {"measurement": "mutagenic call", "setting": "Test System: AMES SALMONELLA TYPHIMURIUM, Strain/Indicator: TA100, Metabolic Activation: NONE, Method: STANDARD PLATE", "result": "inactive; negative"}, {"measurement": "mutagenic call", "setting": "Test System: AMES SALMONELLA TYPHIMURIUM, Strain/Indicator: TA100, Metabolic Activation: RAT, LIVER, S-9, AROCLOR 1254, Method: STANDARD PLATE", "result": "active; positive"}, {"measurement": "mutagenic call", "setting": "Test System: AMES SALMONELLA TYPHIMURIUM, Strain/Indicator: TA1535, Metabolic Activation: HAMSTER, LIVER, S-9, Method: STANDARD PLATE", "result": "inactive; negative"}, {"measurement": "mutagenic call", "setting": "Test System: AMES SALMONELLA TYPHIMURIUM, Strain/Indicator: TA1535, Metabolic Activation: MOUSE, LIVER, S-9, AROCLOR 1254, Method: STANDARD PLATE", "result": "inactive; negative"}, {"measurement": "mutagenic call", "setting": "Test System: AMES SALMONELLA TYPHIMURIUM, Strain/Indicator: TA1535, Metabolic Activation: MOUSE, LIVER, S-9, Method: STANDARD PLATE", "result": "inactive; negative"}, {"measurement": "mutagenic call", "setting": "Test System: AMES SALMONELLA TYPHIMURIUM, Strain/Indicator: TA1535, Metabolic Activation: NONE, Method: STANDARD PLATE", "result": "inactive; negative"}, {"measurement": "mutagenic call", "setting": "Test System: AMES SALMONELLA TYPHIMURIUM, Strain/Indicator: TA1537, Metabolic Activation: HAMSTER, LIVER, S-9, AROCLOR 1254, Method: STANDARD PLATE", "result": "active; positive"}, {"measurement": "mutagenic call", "setting": "Test System: AMES SALMONELLA TYPHIMURIUM, Strain/Indicator: TA1537, Metabolic Activation: HAMSTER, LIVER, S-9, Method: STANDARD PLATE", "result": "active; positive"}, {"measurement": "mutagenic call", "setting": "Test System: AMES SALMONELLA TYPHIMURIUM, Strain/Indicator: TA1537, Metabolic Activation: MOUSE, LIVER, S-9, AROCLOR 1254, Method: STANDARD PLATE", "result": "active; positive"}, {"measurement": "mutagenic call", "setting": "Test System: AMES SALMONELLA TYPHIMURIUM, Strain/Indicator: TA1537, Metabolic Activation: MOUSE, LIVER, S-9, Method: STANDARD PLATE", "result": "active; positive"}, {"measurement": "mutagenic call", "setting": "Test System: AMES SALMONELLA TYPHIMURIUM, Strain/Indicator: TA1537, Metabolic Activation: RAT, LIVER, S-9, AROCLOR 1254, Method: STANDARD PLATE", "result": "active; positive"}, {"measurement": "mutagenic call", "setting": "Test System: AMES SALMONELLA TYPHIMURIUM, Strain/Indicator: TA1537, Metabolic Activation: RAT, LIVER, S-9, Method: STANDARD PLATE", "result": "active; positive"}, {"measurement": "mutagenic call", "setting": "Test System: AMES SALMONELLA TYPHIMURIUM, Strain/Indicator: TA1538, Metabolic Activation: HAMSTER, LIVER, S-9, AROCLOR 1254, Method: STANDARD PLATE", "result": "active; positive"}, {"measurement": "mutagenic call", "setting": "Test System: AMES SALMONELLA TYPHIMURIUM, Strain/Indicator: TA1538, Metabolic Activation: HAMSTER, LIVER, S-9, Method: STANDARD PLATE", "result": "active; positive"}, {"measurement": "mutagenic call", "setting": "Test System: AMES SALMONELLA TYPHIMURIUM, Strain/Indicator: TA1538, Metabolic Activation: MOUSE, LIVER, S-9, AROCLOR 1254, Method: STANDARD PLATE", "result": "active; positive"}, {"measurement": "mutagenic call", "setting": "Test System: AMES SALMONELLA TYPHIMURIUM, Strain/Indicator: TA1538, Metabolic Activation: MOUSE, LIVER, S-9, Method: STANDARD PLATE", "result": "active; positive"}, {"measurement": "mutagenic call", "setting": "Test System: AMES SALMONELLA TYPHIMURIUM, Strain/Indicator: TA1538, Metabolic Activation: NONE, Method: STANDARD PLATE", "result": "inactive; negative"}, {"measurement": "mutagenic call", "setting": "Test System: AMES SALMONELLA TYPHIMURIUM, Strain/Indicator: TA1538, Metabolic Activation: RAT, LIVER, S-9, AROCLOR 1254, Method: STANDARD PLATE", "result": "active; positive"}, {"measurement": "mutagenic call", "setting": "Test System: AMES SALMONELLA TYPHIMURIUM, Strain/Indicator: TA1538, Metabolic Activation: RAT, LIVER, S-9, Method: STANDARD PLATE", "result": "active; positive"}, {"measurement": "mutagenic call", "setting": "Test System: E. COLI, Strain/Indicator: WP2 UVRA, Metabolic Activation: HAMSTER, LIVER, S-9, Method: STANDARD PLATE", "result": "inactive; negative"}, {"measurement": "mutagenic call", "setting": "Test System: E. COLI, Strain/Indicator: WP2 UVRA, Metabolic Activation: MOUSE, LIVER, S-9, Method: STANDARD PLATE", "result": "inactive; negative"}, {"measurement": "mutagenic call", "setting": "Test System: E. COLI, Strain/Indicator: WP2 UVRA, Metabolic Activation: NONE, Method: STANDARD PLATE", "result": "inactive; negative"}, {"measurement": "mutagenic call", "setting": "Test System: E. COLI, Strain/Indicator: WP2 UVRA, Metabolic Activation: RAT, LIVER, S-9, Method: STANDARD PLATE", "result": "inactive; negative"}, {"measurement": "mutagenic call", "setting": "Test System: MOUSE LYMPHOMA, Strain/Indicator: L5178Y (TK+/TK-), Metabolic Activation: NONE, Method: SUSPENSION/PLATE", "result": "active; positive"}]}, {"smiles": "Nc1ccc(-c2cc(Cl)c(N)c(Cl)c2)cc1Cl", "values": [{"measurement": "mutagenic call", "setting": "Test System: AMES SALMONELLA TYPHIMURIUM, Strain/Indicator: TA98/1,8-DNP6, Metabolic Activation: HAMSTER, LIVER, S-9, Method: PREINCUBATION", "result": "active; positive"}, {"measurement": "mutagenic call", "setting": "Test System: AMES SALMONELLA TYPHIMURIUM, Strain/Indicator: TA98, Metabolic Activation: HAMSTER, LIVER, S-9, Method: PREINCUBATION", "result": "active; positive"}, {"measurement": "mutagenic call", "setting": "Test System: AMES SALMONELLA TYPHIMURIUM, Strain/Indicator: TA98, Metabolic Activation: NONE, Method: PREINCUBATION", "result": "active; positive"}, {"measurement": "mutagenic call", "setting": "Test System: AMES SALMONELLA TYPHIMURIUM, Strain/Indicator: TA100, Metabolic Activation: HAMSTER, LIVER, S-9, Method: PREINCUBATION", "result": "active; positive"}]}]}
